Assay results published in the supplement of paper PMC10307832.

Legend:
Test in all cases: relative viability (nuclei count vs DMSO), 5 days (fraction); higher = more cells survive
[1] = system: LK-2
Method in brief: (§1)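 After 5 days of treatment, lung cancer cells in 1536-well plates were fixed and stained in a single step (final 0.05% Triton X-100, 1% formaldehyde, 1 ug/ml Hoechst) and their nuclei counted on 4× images. Treatment had been applied by pin tool the day after seeding as one drug alone or as a fixed anchor-drug dose with five library-drug doses (not always all listed) in √10 steps. Relative viability is the nuclei count of treated wells divided by that of vehicle wells, and values are medians of duplicate plates.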

[2] = system: NCI-H661
Method in brief: as §1

[3] = system: CAL-12T
Method in brief: as §1

[4] = system: HCC-827
Method in brief: as §1

[5] = system: NCI-H322M
Method in brief: as §1

[6] = system: NCI-H520
Method in brief: as §1

[7] = system: NCI-H1355
Method in brief: as §1

[8] = system: ABC-1
Method in brief: as §1

[9] = system: NCI-H1437
Method in brief: as §1

[10] = system: HCC-15
Method in brief: as §1

[11] = system: RERF-LC-KJ
Method in brief: as §1

[12] = system: SW 1573
Method in brief: as §1

[13] = system: NCI-H1734
Method in brief: as §1

[14] = system: EKVX
Method in brief: as §1

[15] = system: COR-L23
Method in brief: as §1

[16] = system: H3255
Method in brief: as §1

[17] = system: NCI-H1563
Method in brief: as §1

[18] = system: NCI-H2228
Method in brief: as §1

[19] = system: NCI-H2405
Method in brief: as §1

[20] = system: PC-3 [JPC-3]
Method in brief: as §1

[21] = system: PC-14
Method in brief: as §1

SMILES: Oc1nc(-c2ccc(C(F)(F)F)cc2)nc2c1CSCC2 [XAV939] + Cc1nc(NC(=O)N2CCC[C@H]2C(N)=O)sc1-c1ccnc(C(C)(C)C(F)(F)F)c1 [Alpelisib] (partner 2 µM)
- relative viability ([1]; first compound 0.08 µM): 1.03
- relative viability ([1]; first compound 0.253 µM): 1.02
- relative viability ([1]; first compound 0.8 µM): 1.1
- relative viability ([1]; first compound 2.53 µM): 0.923
- relative viability ([2]; first compound 0.08 µM): 0.655
- relative viability ([2]; first compound 0.253 µM): 0.621
- relative viability ([2]; first compound 0.8 µM): 0.833
- relative viability ([2]; first compound 2.53 µM): 0.492
- relative viability ([3]; first compound 0.08 µM): 1.42
- relative viability ([3]; first compound 0.253 µM): 0.932
- relative viability ([3]; first compound 0.8 µM): 1.2
- relative viability ([3]; first compound 2.53 µM): 0.73
- relative viability ([4]; first compound 0.08 µM): 1.04
- relative viability ([4]; first compound 0.253 µM): 0.934
- relative viability ([4]; first compound 0.8 µM): 0.967
- relative viability ([4]; first compound 2.53 µM): 0.969
- relative viability ([5]; first compound 0.08 µM): 0.844
- relative viability ([5]; first compound 0.253 µM): 0.656
- relative viability ([5]; first compound 0.8 µM): 0.741
- relative viability ([5]; first compound 2.53 µM): 0.718
- relative viability ([6]; first compound 0.08 µM): 0.842
- relative viability ([6]; first compound 0.253 µM): 0.755
- relative viability ([6]; first compound 0.8 µM): 0.916
- relative viability ([6]; first compound 2.53 µM): 0.648
- relative viability ([7]; first compound 0.08 µM): 0.78
- relative viability ([7]; first compound 0.253 µM): 0.654
- relative viability ([7]; first compound 0.8 µM): 0.75
- relative viability ([7]; first compound 2.53 µM): 0.489
- relative viability ([8]; first compound 0.08 µM): 1.14
- relative viability ([8]; first compound 0.253 µM): 0.811
- relative viability ([8]; first compound 0.8 µM): 0.965
- relative viability ([8]; first compound 2.53 µM): 0.428
- relative viability ([9]; first compound 0.08 µM): 1.03
- relative viability ([9]; first compound 0.253 µM): 0.709
- relative viability ([9]; first compound 0.8 µM): 0.97
- relative viability ([9]; first compound 2.53 µM): 0.715
- relative viability ([10]; first compound 0.08 µM): 1
- relative viability ([10]; first compound 0.253 µM): 0.939
- relative viability ([10]; first compound 0.8 µM): 0.925
- relative viability ([10]; first compound 2.53 µM): 0.946
- relative viability ([11]; first compound 0.08 µM): 0.702
- relative viability ([11]; first compound 0.253 µM): 0.708
- relative viability ([11]; first compound 0.8 µM): 0.768
- relative viability ([11]; first compound 2.53 µM): 0.735
- relative viability ([12]; first compound 0.08 µM): 0.712
- relative viability ([12]; first compound 0.253 µM): 0.552
- relative viability ([12]; first compound 0.8 µM): 0.515
- relative viability ([12]; first compound 2.53 µM): 0.464
- relative viability ([13]; first compound 0.08 µM): 0.713
- relative viability ([13]; first compound 0.253 µM): 0.64
- relative viability ([13]; first compound 0.8 µM): 0.634
- relative viability ([13]; first compound 2.53 µM): 0.606
- relative viability ([14]; first compound 0.08 µM): 0.825
- relative viability ([14]; first compound 0.253 µM): 0.67
- relative viability ([14]; first compound 0.8 µM): 0.731
- relative viability ([14]; first compound 2.53 µM): 0.548
- relative viability ([15]; first compound 0.08 µM): 1
- relative viability ([15]; first compound 0.253 µM): 0.73
- relative viability ([15]; first compound 0.8 µM): 0.772
- relative viability ([15]; first compound 2.53 µM): 0.576
- relative viability ([16]; first compound 0.08 µM): 0.965
- relative viability ([16]; first compound 0.253 µM): 0.709
- relative viability ([16]; first compound 0.8 µM): 0.414
- relative viability ([16]; first compound 2.53 µM): 0.522
- relative viability ([17]; first compound 0.08 µM): 0.937
- relative viability ([17]; first compound 0.253 µM): 0.864
- relative viability ([17]; first compound 0.8 µM): 0.804
- relative viability ([17]; first compound 2.53 µM): 0.708
- relative viability ([18]; first compound 0.08 µM): 0.708
- relative viability ([18]; first compound 0.253 µM): 0.757
- relative viability ([18]; first compound 0.8 µM): 0.536
- relative viability ([18]; first compound 2.53 µM): 0.463
- relative viability ([19]; first compound 0.08 µM): 0.922
- relative viability ([19]; first compound 0.253 µM): 0.804
- relative viability ([19]; first compound 0.8 µM): 0.732
- relative viability ([19]; first compound 2.53 µM): 0.635
- relative viability ([20]; first compound 0.08 µM): 1
- relative viability ([20]; first compound 0.253 µM): 0.962
- relative viability ([20]; first compound 0.8 µM): 1.07
- relative viability ([20]; first compound 2.53 µM): 0.962
- relative viability ([21]; first compound 0.08 µM): 1.03
- relative viability ([21]; first compound 0.253 µM): 0.829
- relative viability ([21]; first compound 0.8 µM): 0.906
- relative viability ([21]; first compound 2.53 µM): 0.796
